Experimental data published in patent US4853221A, “Method for treating non-small cell lung cancer, head and neck cancers and breast cancer” (Warner-Lambert Company, priority 1987, dated 1989).

Tests used:
Sarcoma-180 = assay: Inhibition of Sarcoma-180 cell growth in vitro; assay type: cell-based; settings: Mus musculus, 48 h; Murine Sarcoma-180; read-out: ED50 (the source's name)
Method: Two leukemia cell lines (L1210 and L5178Y) and two solid tumor cell lines (Sarcoma 180 and Walker 256) were used in these studies.
(§1) Logarithmically growing L1210 cells (approximately 3×10^5 cells/ml) were diluted with Fischer's medium (containing 10% horse serum) to an approximate concentration of 5×10^4 cells/ml. Cells were planted in duplicate into 15 ml culture tubes containing either no drug or various amounts of drug, and incubated for 48 hours at 37° C. before being counted.
(§2) Trimetrexate was also evaluated in a similar manner side-by-side with methotrexate for its effect on the growth of three additional murine cell lines (L5178Y, Sarcoma-180, and Walkler-256) and three human cell lines (acute myelogenous leukemia K-562, T-cell 8402, and B-cell 8392), propagated in vitro.

AML K-562 = assay: Inhibition of AML K-562 cell growth in vitro; assay type: cell-based, human; settings: K562, 48 h; Human AML K-562; read-out: ED50 (the source's name)
Method: as §1, §2

[1] = system: human cell lines (K-562, T-cell 8402, B-cell 8392); assay: Comparison with methotrexate against human cell lines in vitro; assay type: cell-based
Method: as §1, §2

Breast tumor = assay: Human tumor cloning system, breast tumors; assay type: cell-based; settings: one hour, 10 specimens
Text: (§3) The activity of trimetrexate was compared with that of methotrexate in tests with a human tumor cloning system (Latham, et al., Proc. Am. Assoc. Cancer Res., 24: 278 (1983)). The data from these tests appear in Table III were the activities are expressed as the numbers of tumors with 50% or greater reduction in tumor colony forming units after one hour exposure to the drug.

Renal tumor = assay: Human tumor cloning system, renal tumors; assay type: cell-based; settings: one hour, 6 specimens
Text: as §3

B-16 Melanoma = assay: Antitumor activity against B-16 melanoma in mice; assay type: in vivo, mouse; settings: for Life Span % ILS / Life Span % T/C: ip daily, Days 1-9
Method: (§4) The growth inhibition properties of 5-methyl-6-[[(3,4,5-trimethoxyphenyl)amino]methyl]-2,4-quinazolinediamine (trimetrexate) against several transplanted murine tumors were evaluated employing the antitumor screening program of the Drug Evaluation Branch of the National Cancer Institute. The protocols for these tests is described in Cancer Chemotherapy Reports, 3: 1-103 (1972). The dosing schedules are results from these tests appear in Table IV.
In the L1210, P388, and B-16 melanoma models, results are expressed as a percentage of median control survival time. Percentage of increase in survival time and/or cures (30 day survivors) were the parameters used to measure the effectiveness of the agents. An initial median survival value for treated over control percentage (% T/C) equal to or greater than 125% was considered indicative of activity. For confirmatory activity, two multidose assays must show % T/C values equal to or greater than 150%.
(§5) Percent increase in median life span (% ILS) values appearing in the tables were calculated from the formula; 100×(median life span in days of treated mice minus median life span in days of untreated mice) divided by median life span in days of untreated control mice. That is, % ILS=[100×(T-C)]/C. % T/C and %ILS are directly interconvertible by the formula % ILS=% T/C -100.
B16 Melanotic melanoma was implanted into BD2F1 mice in the form of a tumor "brei" prepared from a 1:10 weight/volume homogenate of the tumor in balanced salt solution.
(§6) In all of the mouse tumor studies described above, routine controls consisted of matching ten normal mice (with no tumors) to each tumor-bearing treatment group and injecting them with the same drug at the same dosages, schedules, days of administration, and drug route as the tumor-bearing mice. In this way, drug-induced toxicity (lethality and weight loss) could be clearly separated from the effects of the drug on the tumors.

Lewis lung carcinoma = assay: Antitumor activity against Lewis lung carcinoma in mice; assay type: in vivo, mouse; settings: optimal dose 40 mg/kg (dose range 40-1.25), IV daily, Days 1-9
Method: as §4, §5, §6

CD8F1 Mammary tumor = assay: Antitumor activity against CD8F1 mammary tumor in mice; assay type: in vivo, mouse; settings: for Tumor Weight Inhibition % TWI: Sc every 7 days, Days 1,8,15,22,19
Method: as §4
Mouse Mammary Tumor Was propagated in CD8F1 female mice as spontaneous tumors. Approximately 10^6 cells were then implanted subcutaneously into CD8F1 mice. […] At the end of the experiment (30 days), individual tumor weights were determined by caliper measurements. Each tumor weight was calculated as described previously for colon 26 and 38 tumors. A criterion of % T/C tumor weight of 42% or less was considered indicative of activity, with a reproducible 10% T/C tumor weight or less indicative of substantive activity.
as §6

[2] = system: non-small cell lung cancer; assay: Phase II trial, non-small cell lung cancer; assay type: in vivo, human
Method: The efficacy and safety of trimetrexate in the treatment of patients with non-small cell lung cancer was evaluated in a 16-center Phase II study.
Initially, all patients received a single 8 mg/m^2 dose of trimetrexate daily for five days of a 21-day treatment course. The dose was administered at three- or four-week intervals, with the number of treatment courses dependent upon the patient's response.
Objective response was determined by a decrease from baseline in tumor size as set forth by the World Health Organization (WHO) response criteria. Duration of response was measured from the date of first treatment to the first date when progressive disease was documented.
Responses were classified as complete or partial. A complete response was defined as no evidence of disease and a partial response as a 50% or greater decrease in overall tumor size without evidence of progression in 28 days.

Oral bioavailability = settings: in vivo, administered orally
cells in culture = assay: Concentration reached in cells in culture; assay type: cell-based; settings: compared with methotrexate
[3] = system: transplanted rodent tumors which are resistant to methotrexate; assay: Activity against methotrexate-resistant transplanted rodent tumors; settings: in vivo
[4] = optimal dose 20 mg/kg (dose range 20-0.62)
[5] = optimal dose 20 mg/kg (dose range 40-1.25)

Compound: COc1cc(NCc2ccc3nc(N)nc(N)c3c2C)cc(OC)c1OC [Trimetrexate, 5-methyl-6-[[(3,4,5-trimethoxyphenyl)amino]methyl]-2,4-quinazolinediamine]
- IC50 (Sarcoma-180): 18 nM
- IC50 (AML K-562): 10 nM
- effectiveness relative to methotrexate [1]: more effective in inhibiting cell growth in vitro than was methotrexate
- Number of Tumors with 50% or Greater Decrease in Tumor Colony Forming Units (Breast tumor; trimetrexate 0.1 μg/ml): 0
- Number of Tumors with 50% or Greater Decrease in Tumor Colony Forming Units (Breast tumor; trimetrexate 1.0 μg/ml): 2
- Number of Tumors with 50% or Greater Decrease in Tumor Colony Forming Units (Renal tumor; trimetrexate 0.1 μg/ml): 1
- Number of Tumors with 50% or Greater Decrease in Tumor Colony Forming Units (Renal tumor; trimetrexate 1.0 μg/ml): 1
- antitumor activity (B-16 Melanoma; intraperitoneally implanted): good activity
- Life Span % ILS (B-16 Melanoma; [4]): 50%
- Life Span % T/C (B-16 Melanoma; [4]): 150%
- Life Span % ILS (B-16 Melanoma; [5]): 64%
- Life Span % T/C (B-16 Melanoma; [5]): 164%
- Life Span % T/C (Lewis lung carcinoma): Negligible
- Tumor Weight Inhibition % TWI (CD8F1 Mammary tumor; optimal dose 120 mg/kg (dose range 120-3.75)): 100%
- Tumor Weight Inhibition % TWI (CD8F1 Mammary tumor; optimal dose 180 mg/kg (dose range 270-35)): 100%
- antitumor activity (CD8F1 Mammary tumor; subcutaneously implanted): good activity
- patients with stable disease ([2]; 23 patients): 39%
- median time to progressive disease ([2]; 23 patients with stable disease): 15.7 weeks
- patients who only experienced progressive disease ([2]; 25 patients): 42%
- median time to progression ([2]; 25 patients who only experienced progressive disease): 3.4 weeks
- median time to progressive disease ([2]; 55 of the 59 evaluable patients, range 1.9-75.0): 7.9 weeks
- patients with partial response ([2]; 59 evaluable patients, initial 8 mg/m^2 daily for five days of a 21-day course): Eleven
- response rate (partial response) ([2]; 95% confidence interval 9%-29%, 59 evaluable patients): 19%
- additional patients with 50% regression only by liver measurements ([2]; in vivo): One
- overall median survival time ([2]; in vivo): 26.4 weeks
- patients who only experienced progressive disease (number) ([2]; in vivo): 25 patients
- patients with stable disease (number) ([2]; in vivo): 23 patients
- patients without progressive disease at end of reporting period ([2]; in vivo): Four
- median time to progressive disease ([2]; patients who responded, range 11.1-47.0): 24.9 weeks
- median duration of partial response ([2]; range 5.6-40.7): 15.3 weeks
- bioavailability (Oral bioavailability): ~80%
- concentration reached in cells in culture (cells in culture): higher concentration than methotrexate
- activity against methotrexate-resistant transplanted rodent tumors [3]: activity against a variety of transplanted rodent tumors
